B1: neuregulin-1: NRG1 beta EGF domain from Reprokine (catalog number RKQ02297); SEQ ID NO: 7 (protein, listed as Homo sapiens)
chain: SHLVKCAEKEKTFCVNGGECFMVKDLSNPSRYLCKCPNEFTGDRCQNYVMASFYKHLGIEF

What was measured:
[1] = tested on: Tibialis anterior muscle fibers; assay: Effect of vitamin B12 on skeletal muscle in vivo: tibialis anterior fiber size in aged rats; parameters: species or system rat; details: 1 mg/kg s.c. 3 times per week for 5 months, type 2A fibers, FIG. 6
Procedure: Pre-sarcopenic rats aged 16 months were treated for 5 months with either adenosylcobalamin (AdoCbl, C0884, Sigma aldrich), methylcobalamin (MeCbl, M9756, Sigma aldrich) or saline. AdoCbl and MeCbl were injected sub-cutaneously at 1 mg/kg body weight 3 time per week. Tibialis Anterior (TA) was then dissected out and frozen for further analyses. For histology, TA was cryo-sectioned at 10 μm and stained with laminin (L9393, Sigma aldrich) to delineate fibers. Specific fiber types 1, 2A and 2B were immunolabeled subsequently with appropriate antibodies (clones BADS, BFF3, and SC71 respectively, DSHB). Images were acquired using a slide scanner (VS-120, Olympus) and analyzed using an in-house MetaXpress journal (Molecular Devices, Sunnyvale, USA). Images from old animals were compared to a group of adult healthy rats (8 months at start of experiment) injected with saline control. For gene expression analysis, total RNA was extracted using the miRNeasy Mini Kit (Qiagen) according to the manufacturer's instruction and RNA quality was checked using the Standard Sensitivity RNA Analysis Kit on a Fragment Analyzer (Advanced Analytical Technologies). Samples were then hybridized on Affymetrix Rat 230 PM 96-Array following standard Affymetrix protocol, based on the Eberwine T7 procedure. […]

[2] = tested on: neuromuscular junctions (nerve and muscle co-cultures); assay: Nerve and muscle co-cultures, stronger beta-amyloid (10 μM) induced damage of neuromuscular junctions; format: cell-based; details: longer incubation, NRG1 30 nM and/or AdoCbl 1 nM, FIG. 5
Procedure: Nerve and muscle co-cultures were grown in vitro until neuromuscular junctions were mature. Damage was induced using beta-amyloid (Ab) incubation (10 μM) and riluzole (5 μM) was used as a positive control for preserving neuromuscular junctions from Ab-induced damage. The effect of neuregulin-1 (NRG1; 30 nM) and/or adenosylcobalamin (AdoCbl; 1 nM) on Ab-induced damage was evaluated by measuring the neuromuscular junction (NMJ) size or number. 6 wells per group were analysed and compared to a control condition (CTL) without Ab-induced damage.

[3] = tested on: neuromuscular junctions (nerve and muscle co-cultures); assay: Nerve and muscle co-cultures, beta-amyloid (2.5 μM) induced damage of neuromuscular junctions; format: cell-based; details: for protection from Ab-induced damage (neuromuscular junction size, number and neurite network): 1 or 100 nM, FIG. 4
Procedure: Nerve and muscle co-cultures were grown in vitro until neuromuscular junctions were mature. Damage was induced using beta-amyloid (Ab) incubation (2.5 μM) and riluzole (5 μM) was used as a positive control for preserving neuromuscular junctions from Ab-induced damage.
The effect of neuregulin-1 (NRG1; various concentrations, as specified in FIG. 2) on Ab-induced damage was evaluated by measuring the neuromuscular junction (NMJ) size. 6 wells per group were analysed and compared to a control condition. The uninjured control condition is the neuromuscular junction size without Ab treatment. All other conditions are to be compared to the Ab treatment alone which represents the reference value for damaged neuromuscular junction size.
Nerve and muscle co-cultures were grown in vitro until neuromuscular junctions were mature. Damage was induced using beta-amyloid (Ab) incubation (2.5 μM) and riluzole (5 μM) was used as a positive control for preserving neuromuscular junctions from Ab-induced damage. The effect of methylcobalamin (MeCbl; 1 or 100 nM) and adenosylcobalamin (AdenoCbl; 1 or 100 nM) on Ab-induced damage was evaluated by measuring the neuromuscular junction (NMJ) number and size, and the neurite network. 6 wells per group were analysed and compared to a control condition (CTL). The uninjured control condition is the neuromuscular junction size without Ab treatment. All other conditions are to be compared to the Ab treatment alone which represents the reference value for damaged neuromuscular junction size.

HSMM human myoblasts = assay: TNFa-induced myotube atrophy in HSMM human myoblasts (fusion index); format: cell-based; details: TNFa 40 ng/ml for 4 days; 1 nM; FIG. 7
Procedure: HSMM human myoblasts were grown in vitro and induced to differentiate into mature myotubes. Myotube atrophy was induced by incubation with TNFa at 40 ng/ml for 4 days. MeCbl (1 nM) and AdoCbl (1 nM) were incubated together with TNFa to test their effect on induced atrophy. IGF1 is used as a positive control at 15 nM to prevent muscle atrophy. After 4 days of treatment, cells were stained for nuclei and myosin heavy chain to quantify the proportion of nuclei inside myotubes (i.e fusion index).

[4] = tested on: hind-limb skeletal muscle; assay: Age-induced atrophy of skeletal muscle in pre-sarcopenic rats (hind-limb skeletal muscle mass); format: in vivo, rat; details: pre-sarcopenic rats aged 16 months, 1 μg/kg s.c. 3 times per week for 5 months, versus saline controls; FIG. 3
Procedure: Pre-sarcopenic rats aged 16 months were treated for 5 months with either neuregulin-1 (NRG1; NRG1 beta EGF domain from Reprokine (catalog number RKQ02297)) or saline. NRG1 was injected sub-cutaneously at 1 μg/kg body weight 3 time per week. Hind-limb skeletal muscle mass was then evaluated and compared to a group of adult healthy rats (8 months at start of experiment) injected with saline control. […]

| Molecule | increase in muscle fiber size [1] | rescue of neuromuscular junctions (number and size) from stronger Ab-induced damage [2] | protection from Ab-induced damage (neuromuscular junction size, number and neurite network) [3] | protection from muscle atrophy (fusion index) (HSMM human myoblasts) | hind-limb skeletal muscle mass [4] | protection of the neuromuscular system from Ab-induced damage (neuromuscular junction size) ([3]; NRG1 at a dose of 30 nM, FIG. 2) |
| --- | --- | --- | --- | --- | --- | --- |
| C/C1=C2/[N-][C@H]([C@H](CC(N)=O)[C@@]2(C)CCC(=O)NC[C@@H](C)OP(=O)([O-])O[C@H]2[C@@H](O)[C@@H](n3cnc4cc(C)c(C)cc43)O[C@@H]2CO)[C@]2(C)N=C(/C(C)=C3N=C(/C=C4N=C1[C@@H](CCC(N)=O)C\4(C)C)[C@@H](CCC(N)=O)[C@]\3(C)CC(N)=O)[C@@H](CCC(N)=O)[C@]2(C)CC(N)=O.[CH2-][C@H]1O[C@@H](n2cnc3c(N)ncnc32)[C@H](O)[C@@H]1O.[Co] [adenosylcobalamin, Adenosylcobalamin] | able to induce an increase in muscle fiber size | neither neuregulin-1 nor adenosylcobalamin alone could rescue the system | able to protect the system at both doses tested | – | – | – |
| C/C1=C2/[N-][C@H]([C@H](CC(N)=O)[C@@]2(C)CCC(=O)NC[C@H](C)OP(=O)([O-])O[C@H]2[C@@H](O)[C@@H](n3cnc4cc(C)c(C)cc43)O[C@@H]2CO)[C@]2(C)N=C(/C(C)=C3N=C(/C=C4N=C1[C@@H](CCC(N)=O)C\4(C)C)[C@@H](CCC(N)=O)[C@]\3(C)CC(N)=O)[C@@H](CCC(N)=O)[C@]2(C)CC(N)=O.[CH3-].[Co+3] [methylcobalamin, Methylcobalamin] | not methylcobalamin, was also able to induce an increase in muscle fiber size | – | not methylcobalamin, was also able to protect the system | able to protect from muscle atrophy | – | – |
| B1 | – | neither neuregulin-1 nor adenosylcobalamin alone could rescue the system | – | – | significantly higher mass compared to controls | able to protect the neuromuscular system from damage |

Source: US10758560B2, “Methods for treating sarcopenia and frailty” (NESTEC S.A., priority 2015, dated 2020)
